Source: ChEMBL document CHEMBL1201862, “PubChem BioAssay data set” (2004)
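Assay format: 96-well plates, 48-hour exposure. GI50 marks 50% less growth.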 The source made the active and inactive calls. No stated cut-off is given here; in the data, active = GI50 up to about 1.1 µM and inactive = higher.

Columns and labels:
Assay in all cases: NCI anticancer screen, dose series, 48 h
MDA-MB-231 = tested on: MDA-MB-231
MDA-N = tested on: MDA-N
KM-20L2 = tested on: KM-20L2
DLD-1 = tested on: DLD-1
LXFL 529 = tested on: LXFL 529
HOP-18 = tested on: HOP-18
SNB-78 = tested on: SNB-78
XF498 = tested on: XF498

Cc1cc(-n2c(/C=C/c3ccc(Cl)cc3)nc3cc(Cl)ccc3c2=O)on1
GI50 (MDA-MB-231): 15.6 µM (inactive) | GI50 (MDA-N): 24.8 µM (inactive)

CC1CN=C(N(C(=O)Nc2ccc(Cl)c(Cl)c2)c2ccccc2)S1 (stereo not drawn)
GI50 (MDA-MB-231): > 100 µM (inactive) | GI50 (MDA-N): 36 µM (inactive)

COC1=CC(=O)c2ccccc2C1(CCC=C(C)C)C1=NC(C)(C)CO1 (stereo not drawn)
GI50 (KM-20L2): > 100 µM (inactive) | GI50 (DLD-1): > 100 µM (inactive) | GI50 (LXFL 529): 50.7 µM (inactive) | GI50 (HOP-18): 43.6 µM (inactive)

CC1(C)N=C(C2CCCN2C(=O)OCc2ccccc2)OC1=O (stereo not drawn)
GI50 (MDA-MB-231): > 100 µM (inactive) | GI50 (MDA-N): > 100 µM (inactive)

Cc1ccc2c(c1)/C(=N/Nc1ccccc1[N+](=O)[O-])C(=O)N2
GI50 (MDA-MB-231): 1.61 µM (inactive) | GI50 (MDA-N): 3.37 µM (inactive)

COC1CCC(OS(C)(=O)=O)CO1 (stereo not drawn)
GI50 (SNB-78): > 100 µM (inactive) | GI50 (KM-20L2): > 100 µM (inactive) | GI50 (LXFL 529): > 100 µM (inactive)

CCCc1c(C(=O)OCC)[nH]c(-c2ccc(-c3[nH]c(C(=O)OCC)c(CCC)c3C(=O)OCC)o2)c1C(=O)OCC
GI50 (SNB-78): > 100 µM (inactive) | GI50 (KM-20L2): > 100 µM (inactive) | GI50 (DLD-1): > 100 µM (inactive) | GI50 (LXFL 529): > 100 µM (inactive) | GI50 (XF498): > 100 µM (inactive) | GI50 (HOP-18): > 100 µM (inactive)

[N-]=[N+]=NCc1cccc(Nc2cc(=O)[nH]c(=O)[nH]2)c1
GI50 (MDA-N): > 100 µM (inactive)

Cn1c(=O)c2c(nc(N/N=C3/SCC(=O)N3Cc3ccccc3)n2C)n(C)c1=O
GI50 (MDA-MB-231): 60.7 µM (inactive) | GI50 (MDA-N): > 100 µM (inactive)

COC(=O)/C(C#N)=C1\CCC(O)N1C (stereo not drawn)
GI50 (SNB-78): > 100 µM (inactive) | GI50 (KM-20L2): > 100 µM (inactive) | GI50 (DLD-1): > 100 µM (inactive) | GI50 (LXFL 529): > 100 µM (inactive) | GI50 (XF498): > 100 µM (inactive) | GI50 (HOP-18): > 100 µM (inactive)

CCSc1ncnc2c(C3OC(CO)C(O)C3O)nsc12 (stereo not drawn)
GI50 (MDA-MB-231): > 100 µM (inactive) | GI50 (MDA-N): > 100 µM (inactive)

N=S(c1ccccc1[N+](=O)[O-])c1ccccc1[N+](=O)[O-]
GI50 (SNB-78): 2.52 µM (inactive) | GI50 (LXFL 529): 2.22 µM (inactive) | GI50 (HOP-18): 5.3 µM (inactive)

Fc1ccccc1C1SCc2nc3cc4ccccc4cc3n21 (stereo not drawn)
GI50 (MDA-MB-231): 13.2 µM (inactive) | GI50 (MDA-N): 79.1 µM (inactive)

CC1(C)CC23C4COC(=O)C2CCC1C3CC4=O (stereo not drawn)
GI50 (SNB-78): 15 µM (inactive) | GI50 (KM-20L2): 21.4 µM (inactive) | GI50 (DLD-1): 11.2 µM (inactive) | GI50 (XF498): 13.7 µM (inactive) | GI50 (HOP-18): 1.72 µM (inactive)

CC1Cc2c(N)nc(N3CCOCC3)nc2NC1=O (stereo not drawn)
GI50 (KM-20L2): > 100 µM (inactive) | GI50 (DLD-1): > 100 µM (inactive) | GI50 (XF498): 0.463 µM (active) | GI50 (HOP-18): > 100 µM (inactive)

Cn1nc(C(=O)N2CC(CCl)c3c2cc(N)c2ccccc32)cc1NC(=O)Nc1cc(C(=O)N2CC(CCl)c3c2cc(N)c2ccccc32)nn1C (stereo not drawn)
GI50 (MDA-MB-231): 0.243 µM (active) | GI50 (MDA-N): 0.157 µM (active)

Cc1c(Cl)nc(Cl)nc1Cl
GI50 (MDA-MB-231): 1.43 µM (inactive) | GI50 (MDA-N): 2.18 µM (inactive)

CC1CCC2(CC1)NC1=C(CC(C)CC1)C1=C2CC(C)CC1 (stereo not drawn)
GI50 (MDA-MB-231): 20.5 µM (inactive) | GI50 (MDA-N): 31.3 µM (inactive)

CC(=O)O[C@H]1[C@H](OC(=O)CC(C)(O)CC(=O)O)C[C@]2(C)C3=C(CCC2C1(C)C)[C@]1(C)CC[C@H]([C@H]2CC[C@H](C(C)(C)O)OC2O)[C@@]1(C)[C@@H](O)C3 (stereo partly drawn)
GI50 (MDA-MB-231): 14.9 µM (inactive) | GI50 (MDA-N): 18.1 µM (inactive)

COc1ccc(NC(=O)CC(=O)n2nc(C)c(/N=N/c3ccccc3C(=O)O)c2C)cc1
GI50 (SNB-78): 29.3 µM (inactive) | GI50 (KM-20L2): > 100 µM (inactive) | GI50 (DLD-1): > 100 µM (inactive) | GI50 (LXFL 529): > 100 µM (inactive) | GI50 (XF498): > 100 µM (inactive)

Cc1cc(NC2=NCCO2)c2c(c1C)CCCC2
GI50 (MDA-MB-231): 24 µM (inactive)

C=CC(Br)(CBr)CCC(Cl)C(C)C (stereo not drawn)
GI50 (MDA-MB-231): 1.4 µM (inactive) | GI50 (MDA-N): 1.45 µM (inactive)

[N-]=[N+]=NCc1nc(N)c2c3c(sc2n1)CCCC3
GI50 (MDA-MB-231): 6.17 µM (inactive) | GI50 (MDA-N): 2.51 µM (inactive)

CC(C)=CCC/C(C)=C/CC/C(C)=C/CC/C(=C/CC/C(C)=C\CC/C(C)=C/CC/C(C)=C/CC/C(C)=C/Cc1cc(O)ccc1O)CO
GI50 (MDA-MB-231): 27.3 µM (inactive) | GI50 (MDA-N): 3.21 µM (inactive)

COC(=O)Cc1cc(O)c(C/C=C(\C)CC/C=C(\C)C(O)C(=O)C=C(C)C)cc1O (stereo not drawn)
GI50 (MDA-MB-231): 34.7 µM (inactive) | GI50 (MDA-N): 35.5 µM (inactive)

CN1COCc2c1ccc1cc3ccc4c(c3nc21)COCN4S(C)(=O)=O
GI50 (MDA-MB-231): > 100 µM (inactive) | GI50 (MDA-N): > 100 µM (inactive)

CC(C)(C)C1=NO[C@H]2[C@@H](NC(=O)c3ccccc3)CC[C@@H]12
GI50 (SNB-78): > 100 µM (inactive) | GI50 (KM-20L2): > 100 µM (inactive) | GI50 (DLD-1): > 100 µM (inactive) | GI50 (LXFL 529): > 100 µM (inactive) | GI50 (XF498): > 100 µM (inactive)

COc1cc(/C=C2\CCC(C)C3=C2N=c2s/c(=C/c4ccc(Cl)cc4)c(=O)n2C3c2cc(OC)c(OC)c(OC)c2)cc(OC)c1OC (stereo not drawn)
GI50 (MDA-MB-231): > 100 µM (inactive) | GI50 (MDA-N): > 100 µM (inactive)

CC(=O)OC(C)(C)C[N+](=O)[O-]
GI50 (KM-20L2): > 100 µM (inactive) | GI50 (DLD-1): > 100 µM (inactive) | GI50 (LXFL 529): > 100 µM (inactive)

CC(C)C1=CC23CCC4C(C)(C(=O)O)CCCC4(C)C2CC1C1C(=O)N(c2ccc(Cc4ccc(N5C(=O)C6C7CC8C9(C)CCCC(C)(C(=O)O)C9CCC8(C=C7C(C)C)C6C5=O)cc4)cc2)C(=O)C13 (stereo not drawn)
GI50 (MDA-MB-231): 15.7 µM (inactive) | GI50 (MDA-N): 8.93 µM (inactive)

O=c1cccc2n1C[C@H]1CNC[C@H]2C1
GI50 (MDA-MB-231): > 100 µM (inactive) | GI50 (MDA-N): > 100 µM (inactive)

CCCCN=C(OC1C=CCCC1)SC (stereo not drawn)
GI50 (MDA-MB-231): > 100 µM (inactive) | GI50 (MDA-N): > 100 µM (inactive)

CN(C)c1nc2sc3c(c2c(=O)o1)CCCC3
GI50 (MDA-MB-231): 41.5 µM (inactive) | GI50 (MDA-N): 38.2 µM (inactive)
